Source: US20210380948A1, “METHOD TO ALTER CHINESE HAMSTER OVARY CELL LINE STABILITY” (University of Delaware, priority 2018, published 2021)

B1: LIG4: heterologous DSB repair protein DNA ligase IV, CH- or CHO-version, expressed from plasmid in CHO-K1 cells (protein, UniProt G3GTP0 1-912, looked up)
DNA ligase 4: MATSQTSQTVAAHVPFADLCSTLERIQKSKERAEKIRHFKEFLDSWRKFHDALHKNKKDVTDSFYPAMRLILPQLERERMAYGIKETMLAKLYIELLNLPREGKDALKLLNYRTPSGARTDAGDFAVIAYFVLKPRCLQKGSLTIQQVNELLDLVASNNSGKRKDLVKKSLLQLITQSSALEQKWLIRMIIKDLKLGVSQQTILNIFHNDAVELHNVTTDLEKVCRQLHDPAVGLSDISITLFSAFKPMLAAVADVERVEKDMKQQSFYIETKLDGERMQMHKDGSVYQYFSRNGYNYTDQFGASPQEGTLTPFIHDAFRTDVQVCILDGEMMAYNPTTQTFMQKGVKFDIKRMVEDSDLQTCYCVFDVLMVNNKKLGRETLRKRYDILNSTFTPIQGRIEIVQKKLAQTKNEVVDALNEAIDKREEGIMIKHPLSIYKPDKRGEGWLKIKPEYVSGLMDELDLLIVGGYWGKGSRGGMMSHFLCAVAEKPPHGEKPSVFHTLCRVGSGYTMKELYDLGLKLAKYWKPFHKKSPPSSILCGTEKPEVYIEPCNSVIVQIKAAEIVPSDMYKTGTTLRFPRIEKIRDDKEWHECMTLGDLEELRGKASGKLATKHLHVGDDDEPREKRRKPVSKMKKTIGIIEHLKAPNLSNISKVSNVFEDVEFCVMSGLDGYPKSDLENRIAEFGGYIVQNPGPDTYCVIAGCENIRVKNIISSDQHDVVKPEWLLECFKTKTCVPWQPRFMIHMCPSTKQHFAREYDCYGDSYFVDTDLDQLKEVFLGIKKAGEHQTPEEMAPVIADLEYRYSWDHSPLCMFRHCTVYLDLYAVINDSSSKIKATRLDVTALELRFHGAKVVSHLSEGVSHVIIGENQSRVSDFKVFRRTLKKKFKILQERWVTDSVDKGELQEENQYLL

Key:
[1] = test system: bEnd.3 mouse endothelial cells; experiment: γH2AX foci count after bleomycin DSB induction, bEnd.3; type: cell-based; conditions: for Induced DSB number: one-hour treatment
Description: (§1) CHO-K1, bEnd.3 or transfected CHO-K1 cells were seeded in chambers of an 8-well chambered cover glass (Cellvis, Mountain View, Calif.) at 2×10^5 cells/mL with 0.5 mL culture media. After 24-hour incubation, cells were treated with 10 μg/mL bleomycin (Sigma-Aldrich, St. Louis, Mo.) for 1 or 12 hours or with 50 μg/mL for 1 hour, followed by immediate media change with fresh warm culture media. After indicated hours of incubation in fresh media, the treated cells were washed three times with Tris buffered saline (TBS), fixed with 4% paraformaldehyde in TBS for 15 min, washed three times with TBS, permeabilized with 0.1% Triton-X100 (Sigma-Aldrich, St. Louis, Mo.) in TBS for 5 min, and washed three times with TBS. Cells were then blocked in TBS containing 3% goat serum (Sigma-Aldrich, St. Louis, Mo.) for 1 hour, incubated with 1:500 primary antibody (anti-phosphorylated γH2AX antibody, EMD Millipore, Billerica, Mass.) at 4° C. overnight, washed three times with TBS, and incubated with 1:1000 Alexa Fluor 488-conjugated secondary antibody (anti-mouse IgG antibody, Life Technologies, Carlsbad, Calif.) for 1 hour at room temperature. After three TBS washes, nuclei were stained with 4′,6-diamidino-2-phenylindole (DAPI, Invitrogen, Carlsbad, Calif.) for 15 min and again washed three times with TBS. Images were taken using a LSM 710 confocal microscope (Carl Zeiss, Thornwood, N.Y.) with a 63× objective. At least 50 cells and foci were counted per cell sample in duplicate cultures using software ImageJ.

CHO-K1 cells [2] = experiment: γH2AX foci count after bleomycin DSB induction, CHO-K1; type: cell-based, Chinese hamster; conditions: for Induced DSB number: one-hour treatment
Description: as §1

[3] = test system: BHK-21 hamster fibroblast; experiment: γH2AX foci count after bleomycin DSB induction, BHK-21; type: cell-based; conditions: for Induced DSB number: one-hour treatment
Description: [The source words this procedure for another cell line and reports this cell line under the same test.] as §1

CHO-K1 cells [4] = experiment: γH2AX foci count in CHO-K1 cells transiently expressing DSB repair genes after bleomycin treatment; type: cell-based, Chinese hamster; conditions: CH-version gene transiently expressed; 12-hour 10 μg/mL bleomycin; FIG. 3
Source text: To clone eight DSB repair genes, total mRNA from CHO-K1 cells or Chinese hamster liver tissue was extracted using Qiagen RNeasy Mini kit and reverse-transcribed into cDNA to be used as templates to generate gene fragments by PCR. FBXO18 gene and partial sequences of RNF8 and LIG4 genes were synthesized as gBlocks Gene Fragments (Integrated DNA Technologies, Coralville, Iowa). A vector fragment was obtained by PCR amplification from plasmid pcDNA3.1/zeo(+) (Thermo Fisher, Waltham, Mass.). Plasmids expressing DSB repair genes were constructed via Gibson assembly of gene fragment(s) and the vector fragment following the manufacturer's instruction (New England Biolabs, Ipswich, Mass.).
CHO-K1, BHK-21 hamster fibroblast (ATCC, Manassas, Va.) and bEnd.3 mouse endothelial cells (ATCC, Manassas, Va.) were cultured in 5 mL Iscove's Modified Dulbecco's Medium (IMDM, Hyclone Laboratories Inc., Logan, Utah) supplemented with 10% fetal bovine serum (FBS, Hyclone Laboratories Inc., Logan, Utah) in T-25 culture flasks (Corning Inc., Corning, N.Y.) at 37° C. and 5% CO2. […]
CHO-K1, bEnd.3 or transfected CHO-K1 cells were seeded in chambers of an 8-well chambered cover glass (Cellvis, Mountain View, Calif.) at 2×10^5 cells/mL with 0.5 mL culture media. […] At least 50 cells and foci were counted per cell sample in duplicate cultures using software ImageJ.

| Molecule | DSB repair rate after removing bleomycin ([1]; bEnd.3 cells, 12-hour treatment with 10 μg/mL bleomycin) | Induced DSB number ([1]; bEnd.3, BL 10 μg/mL) | Induced DSB number ([1]; bEnd.3, BL 50 μg/mL) | Repair rate ([1]; bEnd.3, after BL 10 μg/mL one-hour treatment) | Repair rate ([1]; bEnd.3, after BL 50 μg/mL one-hour treatment) | DSB repair rate after removing bleomycin (CHO-K1 cells [2]; CHO cells, 12-hour treatment with 10 μg/mL bleomycin) | Induced DSB number (CHO-K1 cells [2]; CHO-K1, BL 10 μg/mL) | Induced DSB number (CHO-K1 cells [2]; CHO-K1, BL 50 μg/mL) | Repair rate (CHO-K1 cells [2]; CHO-K1, after BL 10 μg/mL one-hour treatment) | Repair rate (CHO-K1 cells [2]; CHO-K1, after BL 50 μg/mL one-hour treatment) | Induced DSB number ([3]; BHK-21, BL 10 μg/mL) | Induced DSB number ([3]; BHK-21, BL 50 μg/mL) | Repair rate ([3]; BHK-21, after BL 10 μg/mL one-hour treatment) | Repair rate ([3]; BHK-21, after BL 50 μg/mL one-hour treatment) | DSB repair rate after removing bleomycin ([3]; BHK-21 cells, 12-hour treatment with 10 μg/mL bleomycin) | DSB level at one hour after bleomycin removal versus control CHO-K1 cells (CHO-K1 cells [4]) | DSB repair within 24 hours after bleomycin removal versus control CHO-K1 cells (CHO-K1 cells [4]) |
| --- | --- | --- | --- | --- | --- | --- | --- | --- | --- | --- | --- | --- | --- | --- | --- | --- | --- |
| bleomycin | 1.03 DSB per hour | 14 | 21 | 2.2 DSB/hour | 3.2 DSB/hour | 0.89 DSB per hour | 6 | 13 | 0.9 DSB/hour | 1.7 DSB/hour | 13 | 20 | 1.8 DSB/hour | 2.3 DSB/hour | 2.64 DSB per hour | – | – |
| B1 | – | – | – | – | – | – | – | – | – | – | – | – | – | – | – | lower DSB level | significantly improved DSB repair |
